Source: article PMC5095700 (Biochemistry, 2016)

Target: T1, Glucosamine/glucosaminide N-acetyltransferase (GlmA) (Clostridium acetobutylicum, UniProt Q97ML2, Y297F)
T1 sequence (Q97ML2 1-320 Y297F): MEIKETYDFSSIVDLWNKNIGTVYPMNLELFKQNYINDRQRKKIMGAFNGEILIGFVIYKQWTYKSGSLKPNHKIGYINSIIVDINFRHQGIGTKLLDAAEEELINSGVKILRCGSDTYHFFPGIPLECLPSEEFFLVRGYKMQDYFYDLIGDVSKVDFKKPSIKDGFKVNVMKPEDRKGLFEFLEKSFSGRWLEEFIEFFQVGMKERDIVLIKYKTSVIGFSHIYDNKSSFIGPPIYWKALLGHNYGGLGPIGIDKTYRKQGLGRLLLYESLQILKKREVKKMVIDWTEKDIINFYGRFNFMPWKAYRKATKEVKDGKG
Test: X-ray crystal structure of Y297F variant
Type: binding

CC(=O)SCCNC(=O)CCNC(=O)[C@H](O)C(C)(C)COP(=O)(O)OP(=O)(O)OC[C@H]1O[C@@H](n2cnc3c(N)ncnc32)[C@H](O)[C@@H]1OP(=O)(O)O [AcCoA, acetyl CoA]
X-ray crystal structure of Y297F variant (1.8 Å): electron density was clearly visible for the acetyl group of the cofactor bound in the C-terminal domain
